The values that follow come from patent publication US7429596B2, “1H-pyrrolo [2,3-D] pyrimidine derivatives and methods of use thereof” (The Regents of the University of California, priority 2003, dated 2008).

One may read the IC50 as the concentration needed to halve the response being measured.

In one data set the target is c-Fyn-wt (Homo sapiens, UniProt P06241). Description: Inhibition of Src family kinase Fyn. Format: biochemical. How it is done: Experiments were performed to determine whether AB129 was capable of inhibiting the Src family kinase, Fyn. […] Such a compound would serve as a test compound for determining the importance of dual inhibition of CBR1 and protein kinases.
The target in data set [1] is T1, carbonyl reductase 1 (CBR1) (Homo sapiens, UniProt P16152).
T1 sequence (P16152 1-277): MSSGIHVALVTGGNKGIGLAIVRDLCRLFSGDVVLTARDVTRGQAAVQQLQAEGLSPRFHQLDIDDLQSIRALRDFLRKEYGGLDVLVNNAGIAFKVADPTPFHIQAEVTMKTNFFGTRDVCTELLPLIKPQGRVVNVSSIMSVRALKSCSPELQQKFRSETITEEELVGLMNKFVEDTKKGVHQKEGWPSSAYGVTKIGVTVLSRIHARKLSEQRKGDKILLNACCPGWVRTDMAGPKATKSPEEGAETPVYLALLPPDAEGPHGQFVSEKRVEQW
Nature of the data set: CBR1 inhibition: menadione reduction, NADPH absorbance at 340 nm. It counts as biochemical. Also on record: 6-His (N); made in house; host or cells: E. coli. Here is the method:
CBR was expressed in E. coli and purified using glutathione beads; CBR has a naturally occurring. glutathione binding site. An N-terminal 6-His tagged protein was prepared to allow purification by metal affinity. Our CBR assay employs the synthetic substrate Menadione (2-methyl-1,4-naphthoquinone). Reaction progress is monitored by the decrease in NADPH-absorbance at 340 nm. Saturating concentrations of Menadione with variable concentrations of NADPH are employed in order to ascertain KI values.

Data set [2] has as its system A549 lung carcinoma cells. Nature of the data set: A549 cell killing / viability.
Data set [3] relates to A549 lung carcinoma cells. Nature of the data set: Cell cycle of A549 cells.
In the next data set the test system is adenocarcinoma cells. Nature of the data set: Killing of adenocarcinoma cells in culture. It counts as cell-based. The source says:
In order to verify this assumption, the pyrazolopyrimidine RB2 and the analogous pyrrolopyrimidine RB5 were synthesized (FIG. 37). These compounds employ an R^2 isopropyl as opposed to the AB129 t-butyl because the Mitsunobu reaction used for RB5 synthesis is not amenable to t-butyl alkylation.

A further data set concerns the target 11β-HSD1 (Homo sapiens, UniProt P28845). The conditions noted are these: Diederich et al. 2000; cited from earlier work.
Setting [4] is: Table 1, read-out: IC50 anti-c-Fyn-wt.
Setting [5] is: Table 1, read-out: IC50 anti-hCBR1.

Read-outs that look alike come from different tables or passages of the source.

Chain of c-Fyn-wt (P06241 whole entry): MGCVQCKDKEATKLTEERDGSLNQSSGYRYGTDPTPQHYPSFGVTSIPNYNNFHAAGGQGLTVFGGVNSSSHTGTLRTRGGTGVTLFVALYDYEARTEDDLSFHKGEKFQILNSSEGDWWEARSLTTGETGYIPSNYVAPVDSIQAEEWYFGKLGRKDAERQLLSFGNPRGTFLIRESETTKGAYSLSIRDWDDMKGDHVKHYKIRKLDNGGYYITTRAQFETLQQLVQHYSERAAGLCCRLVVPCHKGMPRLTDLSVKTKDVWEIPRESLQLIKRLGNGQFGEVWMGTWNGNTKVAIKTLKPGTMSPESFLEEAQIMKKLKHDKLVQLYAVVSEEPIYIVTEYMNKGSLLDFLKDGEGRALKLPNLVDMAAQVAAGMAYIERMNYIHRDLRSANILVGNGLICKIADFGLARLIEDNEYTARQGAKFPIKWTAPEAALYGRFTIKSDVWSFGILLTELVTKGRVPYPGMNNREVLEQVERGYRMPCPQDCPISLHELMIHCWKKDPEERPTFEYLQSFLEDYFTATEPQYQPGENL
Chain of 11β-HSD1 (P28845 whole entry): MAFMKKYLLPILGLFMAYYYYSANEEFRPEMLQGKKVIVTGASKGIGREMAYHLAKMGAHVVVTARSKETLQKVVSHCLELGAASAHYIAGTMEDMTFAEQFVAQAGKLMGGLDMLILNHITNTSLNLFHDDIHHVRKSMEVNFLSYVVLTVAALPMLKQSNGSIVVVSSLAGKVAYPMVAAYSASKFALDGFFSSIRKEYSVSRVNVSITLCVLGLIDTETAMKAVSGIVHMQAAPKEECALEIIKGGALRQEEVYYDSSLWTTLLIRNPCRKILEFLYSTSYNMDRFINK

As for `CC(C)(C)n1nc(-c2ccccc2)c2c(N)ncnc21` [AB001], the 50% inhibitory concentration (IC50) at c-Fyn-wt (setting [4]) is 110 nM; in data set [1] (setting [5]) it was over 20000 nM. On to `CC(C)(C)n1nc(-c2cccc(N)c2)c2c(N)ncnc21` [AB060], for which the IC50 is 50 nM on c-Fyn-wt (setting [4]) and over 20000 nM in data set [1] (setting [5]). The “cell killing in human lung cancer cell line A549” value (from here on “cell killing”) in data set [2] is recorded as “mild to severe cell killing”. With `CC(C)(C)n1nc(-c2ccc(N)cc2)c2c(N)ncnc21` [AB061], the results for the IC50 (on c-Fyn-wt (setting [4]); in data set [1] (setting [5])) were 50 nM and over 20000 nM, respectively. For the same compound, the “cell killing” value in data set [2] is given as “mild to severe cell killing”. For the compound `CC(C)(C)n1nc(-c2ccc(F)c(O)c2)c2c(N)ncnc21` [MS01], the IC50 at c-Fyn-wt (setting [4]) came out at 3 nM; in data set [1] (setting [5]), 1000 nM. Turning to `CCOCCn1nc(-c2ccccc2)c2c(N)ncnc21` [MT13], the IC50 on c-Fyn-wt (setting [4]) was 5000 nM; in data set [1] (setting [5]), over 20000 nM.

As for `CCOCCn1nc(-c2cccc(O)c2)c2c(N)ncnc21` [MT15], the IC50 on c-Fyn-wt (setting [4]) is 200 nM; in data set [1] (setting [5]), 930 nM. Regarding `Cc1ccc(-c2nn(C(C)(C)C)c3ncnc(N)c23)cc1` [PP1, reference compound], in data set [3], the “A549 cells in G2/M phase” value was “approximately 5.6%”. The “cell killing” value in data set [2] is “not”. The compound further came in with an IC50 in data set [1] of over 20000 nM. Further, the “inhibition of CBR1” value was “did not inhibit” in data set [1] (at a concentration as high as 16 μM) and “does not inhibit” in data set [1] (in vitro assay, CBR1 expressed in bacteria). As for `CC(C)(C)n1nc(Cc2cccc(O)c2)c2c(N)ncnc21` [RB01], the IC50 was 1200 nM at c-Fyn-wt (setting [4]) and over 20000 nM in data set [1] (setting [5]). As to `CC(C)n1nc(-c2cccc(O)c2)c2c(N)ncnc21` [RB02], the values for the half-inhibitory concentration (IC50) (at c-Fyn-wt (setting [4]); in data set [1] (setting [5])) were 11 nM and 1000 nM, respectively. For the same compound, the “killing of adenocarcinoma cells in culture” value in the data set on adenocarcinoma cells was “kill adenocarcinoma cells in culture”. Moreover, the “CBR inhibition compared with AB129” value in data set [1] was “comparable to AB129”.

`CC(C)(C)n1nc(Cc2ccc(O)cc2)c2c(N)ncnc21` [RB03]: the IC50 at c-Fyn-wt (setting [4]) is about 20000 nM; in data set [1] (setting [5]), over 20000 nM. Turning to `CC(C)(C)n1nc(Cc2ccccc2O)c2c(N)ncnc21` [RB04], the IC50 is 120 nM on c-Fyn-wt (setting [4]) and over 20000 nM in data set [1] (setting [5]).

As for `CC(C)n1cc(-c2cccc(O)c2)c2c(N)ncnc21` [RB05, 3-(4-amino-7-isopropyl-7H-pyrrolo[2,3-d]pyrimidin-5-yl)-phenol], the IC50 at c-Fyn-wt (setting [4]) is 12 nM; in data set [1] (setting [5]), 760 nM. Also, the “killing of adenocarcinoma cells in culture” value with adenocarcinoma cells is reported as “kill adenocarcinoma cells in culture”. In data set [1], the “CBR inhibition compared with AB129” value was “comparable to AB129”.

For the compound `CNc1ncnc2c1c(-c1cccc(O)c1)cn2C(C)C` [RB06], the IC50 at c-Fyn-wt (setting [4]) was 70000 nM; in data set [1] (setting [5]) it was 590 nM. The “fold less potent as an inhibitor of Fyn” value on c-Fyn-wt (predicted, versus AB129) is listed as over 100 fold. Besides, in data set [1], the “CBR inhibition compared with AB129” value is “equipotent”.

`CNc1ncnc2c1c(-c1cccc(N)c1)cn2C(C)C` [RB07, [5-(3-amino-phenyl)-7-isopropyl-7H-pyrrolo[2,3-d]pyrimidin-4-yl]-methyl-amine]: the half-inhibitory concentration (IC50) in data set [1] (setting [5]) is over 20000 nM.

As to `CC(C)n1cc(-c2cccc(O)c2)c2c(NCc3ccccc3)ncnc21` [RB08, 3-(4-benzylamino-7-isopropyl-7H-pyrrolo[2,3-d]pyrimidin-5-yl)-phenol], the concentration for half-maximal inhibition (IC50) at c-Fyn-wt (read-out: anti-Fyn IC50) amounted to 20000 nM; in data set [1] (read-out: anti-CBR IC50) it was 4400 nM. Regarding `CC(C)n1cc(-c2cccc(O)c2)c2c(N(Cc3ccccc3)Cc3ccccc3)ncnc21` [RB09, 3-(4-dibenzylamino-7-isopropyl-7H-pyrrolo[2,3-d]pyrimidin-5-yl)-phenol], the IC50 in data set [1] (setting [5]) is over 20000 nM. `CNc1ncnc2c1c(-c1cccc(O)c1)cn2CCC(=O)OC(C)(C)C` [RB10, tert-Butyl 3-(5-(3-hydroxyphenyl)-4-(methylamino)-4aH-pyrrolo[2,3-d]pyrimidin-7(7aH)-yl)propanoate]: the IC50 in data set [1] (read-out: anti-CBR IC50) came to 1150 nM. The same measure, in the same setting: the value for `CNc1ncnc2c1c(-c1cccc(O)c1)cn2CCC(=O)O` [RB11, 3-(5-(3-hydroxyphenyl)-4-(methylamino)-4aH-pyrrolo[2,3-d]pyrimidin-7(7aH)-yl)propanoic acid] was 220 nM; that for `CNc1ncnc2c1c(-c1cc(O)cc(Br)c1)cn2C(C)C` [SD1, 3-bromo-5-(7-isopropyl-4-methylamino-7H-pyrrolo[2,3-d]pyrimidin-5-yl)-phenol] was 220 nM; that for `CNc1ncnc2c1c(-c1cc(C)cc(O)c1)cn2C(C)C` [SD2, 3-(7-isopropyl-4-methylamino-7H-pyrrolo[2,3-d]pyrimidin-5-yl)-5-methyl-phenol] was 3040 nM. Same read-out and setting: the value for `CNc1ncnc2c1c(-c1cc(O)cc(C(C)(C)C)c1)cn2C(C)C` [SD3, 3-tert-Butyl-5-(7-isopropyl-4-methylamino-7H-pyrrolo[2,3-d]pyrimidin-5-yl)-phenol] was 7650 nM. Still for that read-out and setting: in the case of `CNc1ncnc2c1c(-c1cc(O)cc(C(F)(F)F)c1)cn2C(C)C` [SD4, 3-(7-Isopropyl-4-methylamino-7H-pyrrolo[2,3-d]pyrimidin-5-yl)-5-trifluoromethyl-phenol] it was 416 nM. In the case of `CC(C)n1cc(-c2cc(O)cc(Br)c2)c2c(Cl)ncnc21` [SD5, 3-bromo-5-(4-chloro-7-isopropyl-7H-pyrrolo[2,3-d]pyrimidin-5-yl)-phenol], the IC50 came to 28 nM in data set [1] (setting [5]) and 27 nM in data set [1] (read-out: anti-CBR IC50). With `Cc1cc(O)cc(-c2cn(C(C)C)c3ncnc(Cl)c23)c1` [SD6, 3-(4-chloro-7-isopropyl-7H-pyrrolo[2,3-d]pyrimidin-5-yl)-5-methyl-phenol], the IC50 in data set [1] (read-out: anti-CBR IC50) is 193 nM. On the same count and under the same terms, in the case of `CC(C)n1cc(-c2cc(O)cc(C(C)(C)C)c2)c2c(Cl)ncnc21` [SD7, 3-tert-butyl-5-(4-chloro-7-isopropyl-7H-pyrrolo[2,3-d]pyrimidin-5-yl)-phenol] it was 376 nM.

On to `CC(C)n1cc(-c2cc(O)cc(C(F)(F)F)c2)c2c(Cl)ncnc21` [SD8, 3-(4-Chloro-7-isopropyl-7H-pyrrolo[2,3-d]pyrimidin-5-yl)-5-trifluoromethyl-phenol], for which the IC50 in data set [1] (read-out: anti-CBR IC50) turned out to be 67 nM. As to `COc1cccc2c1C(=O)c1c(O)c3c(c(O)c1C2=O)C[C@@](O)(C(C)=O)C[C@@H]3O[C@H]1C[C@H](N)[C@H](O)[C@H](C)O1` [daunorubicin, reference compound], the “loss of viability of A549 cells” value in data set [2] (daunorubicin single agent, 0.8 μM) was 15%.

As for `CC1(C)[C@@H](O[C@H]2O[C@H](C(=O)O)[C@@H](O)[C@H](O)[C@H]2O[C@@H]2O[C@H](C(=O)O)[C@@H](O)[C@H](O)[C@H]2O)CC[C@]2(C)[C@H]3C(=O)C=C4[C@@H]5C[C@@](C)(C(=O)O)CC[C@]5(C)CC[C@@]4(C)[C@]3(C)CC[C@@H]12` [glycyrrhizic acid], at 11β-HSD1, the IC50 was 40 nM.
